Measurements: ChEMBL document CHEMBL1909600, “Ganodone, a bioactive benzofuran from the fruiting bodies of Ganoderma tsugae” (J Nat Prod, 2011)

What was measured:
HCT-116 [1] = test: Cellular uptake in human HCT116 cells at 1 uM after 1 hr by confocal fluorescence microscopy; type: ADME, cell-based; settings: hct-116, 1 h
HeLa = test: Cytotoxicity against human HeLa cells after 24 hrs by MTT assay; type: functional, cell-based
[2] = Drug uptake in human HCT116 cell chromatin at 1 uM after 12 hrs by confocal fluorescence microscopy; type: ADME, cell-based; settings: hct-116, 12 h
[3] = Drug uptake in human HCT116 cell lysosomes at 1 uM by using Lyso Tracker Red DND-99 staining; type: ADME, cell-based, Lysosome; settings: hct-116, 1 µM
HCT-116 [4] = test: Cytotoxicity against human HCT116 cells after 24 hrs by MTT assay; type: functional, cell-based; settings: HCT-116, 24 h
[5] = Drug uptake in human HCT116 cell subcellular region at 1 uM incubated for 3 hrs measured after 30 hrs of drug washout by confocal fluorescence microscopy; type: ADME, cell-based; settings: hct-116, 3 h
[6] = Drug uptake in human HCT116 cell […] at 1 uM by using Lyso Tracker Red DND-99 staining; type: ADME, cell-based; settings: hct-116, 1 µM
[7] = Cytotoxicity against mouse Neuro2a cells after 24 hrs by MTT assay; type: functional, cell-based; settings: N2a
[8] = Drug uptake in human HCT116 mitochondria at 1 uM by using Mito Tracker Red 580 staining; type: ADME
[9] = Drug uptake in human HCT116 cells cytosol at 1 uM after 12 hrs by confocal fluorescence microscopy; type: ADME, cell-based, HCT-116
[10] = Drug uptake in human HCT116 cell nuclear membrane at 1 uM after 12 hrs by confocal fluorescence microscopy; type: ADME, cell membranes; settings: hct-116, 12 h

## CC(=O)c1ccc(OC2Cc3c(ccc(C(C)=O)c3O)O2)cc1O (stereo unspecified)
HCT-116 [1]
  Drug uptake: Active
HeLa
  IC50: 490 nM
[2]
  Drug uptake: Active
[3]
  Drug uptake: Not Active
HCT-116 [4]
  IC50: 220 nM
[5]
  Drug uptake: Active
[6]
  Drug uptake: Not Active
[7]
  IC50: 81 nM
[8]
  Drug uptake: Not Active
[9]
  Drug uptake: Active
[10]
  Drug uptake: Active
